# Measured values as given in paper PMC8910920 (International Journal of Molecular Sciences, 2022).
# Entries after “also recorded” stand apart in the source; their conditions may differ.
# Legend:
# hTRPV1 = biological target: T1, hTRPV1 (Homo sapiens, UniProt Q8NER1); experiment: hTRPV1 agonist assay (Ca2+ fluorimetry, CHO cells); assay type: cell-based; details: 10 μM
# T1 construct: host or cells: CHO
# Procedure: These studies were subcontracted to Eurofins-CEREP or Eurofins-PANLABS. Briefly, agonists and antagonist assays were performed in cell cultures overexpressing the corresponding channel (CHO: TRPV1 and TRPA1; HEK293: TRPV3 and ASIC3). In vitro pharmacology, cellular channel functional assays: the compound was prepared in assay buffer to the final concentration, 10 μM. The compound wells, reference agonist and background vehicle controls were prepared in DMSO at 0.3%. The reference agonist for each Ion Channel assayed was prepared in a similar manner to serve as the assay control. […] The agonist assay was conducted on fluorimeter instruments where the test compound, vehicle controls, and reference agonist were added to the assay plate after a fluorescence baseline was established. […] For the antagonist assay, the compound was pre-incubated for five minutes at room temperature, and then challenged with the EC80 concentration of the reference agonist after establishment of a fluorescence baseline. […] Binding assay results are expressed as a percent of control specific binding. […] Aqueous solubility (μM) was determined by comparing the peak area of the principal peak in a calibration standard (200 μM) containing organic solvent (methanol/water, 60/40, v/v) with the peak area of the corresponding peak in a buffer sample. […] The amount of compound in organic phase was calculated by subtraction. […]
# [1] = system: NTG-induced mechanical hypersensitivity in C57BL6 mice; experiment: NTG-induced mechanical hypersensitivity, von Frey test; assay type: in vivo, mouse
# Text: Administration of NTG intermittently produces a baseline hypersensitivity to mechanical stimulation, which can be measured by the von Frey test. The mechanical stimulus was applied at different times to obtain the time course of the effects produced after compound administration, and both male and female mice were used to investigate a possible sex dimorphism.
# C57BL6 mice (males and females, ≈25 g) (Envigo, Blackthorn, UK) were used for the study. All experiments were approved by the Institutional Animal and Ethical Committee of the Universidad Miguel Hernandez where experiments were conducted and they were in accordance with the guidelines of the Economic European Community and the Committee for Research and Ethical Issues of the International Association for the Study of Pain. All parts of the study concerning animal care were performed under the control of veterinarians. […] The 50% response threshold was calculated using the following formula:50% (g) threshold = (10^(Xf + kd))/10,000 where Xf is the value of the last von Frey filament applied; k is a correction factor based on pattern of responses (from the Dixon’s calibration table); d is the mean distance in log units between stimuli (here, 0.4).
# Von Frey threshold for each animal was calculated, according to the formula, and data analysis was performed by using GraphPad 6.0. […]
# T1 sequence (Q8NER1 whole entry): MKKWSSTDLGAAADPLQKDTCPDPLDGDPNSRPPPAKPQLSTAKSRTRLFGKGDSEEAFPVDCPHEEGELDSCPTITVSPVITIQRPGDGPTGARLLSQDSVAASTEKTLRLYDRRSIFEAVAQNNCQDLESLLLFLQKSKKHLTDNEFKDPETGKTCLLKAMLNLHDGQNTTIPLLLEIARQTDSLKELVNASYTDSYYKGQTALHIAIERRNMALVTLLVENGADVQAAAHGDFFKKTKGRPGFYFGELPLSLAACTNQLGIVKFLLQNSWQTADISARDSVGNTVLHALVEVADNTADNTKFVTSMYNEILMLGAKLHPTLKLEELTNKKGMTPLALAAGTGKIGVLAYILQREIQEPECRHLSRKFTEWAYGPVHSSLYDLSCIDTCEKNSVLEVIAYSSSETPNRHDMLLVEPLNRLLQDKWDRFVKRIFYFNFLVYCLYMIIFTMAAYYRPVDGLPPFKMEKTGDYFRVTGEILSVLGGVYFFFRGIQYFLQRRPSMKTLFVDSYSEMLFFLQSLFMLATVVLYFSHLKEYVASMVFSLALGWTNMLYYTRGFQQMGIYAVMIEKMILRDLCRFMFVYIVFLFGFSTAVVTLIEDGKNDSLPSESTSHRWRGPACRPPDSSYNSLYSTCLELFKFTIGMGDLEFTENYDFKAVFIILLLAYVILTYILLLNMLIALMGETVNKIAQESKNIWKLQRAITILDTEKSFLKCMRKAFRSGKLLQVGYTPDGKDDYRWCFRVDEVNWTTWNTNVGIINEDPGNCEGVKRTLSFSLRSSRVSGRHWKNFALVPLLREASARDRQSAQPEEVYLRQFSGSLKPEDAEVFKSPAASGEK
structure (smiles),measurement,setting,value
"C[C@@H]1C(=O)N(C[C@H](Cc2ccccc2)N(Cc2ccccc2)Cc2ccccc2)[C@]1(Cc1ccccc1)C(=O)OC(C)(C)C [RGM8-51, 4(S)-Benzyl-3S-methyl-4-(tert-butoxy)carbonyl-1-[(2′S-dibenzylamino-3′-phenyl)prop-1′-yl]-2-oxoazetidine]",hTRPV1 ago. (%),hTRPV1,31.3 ± 3.6%
same,"NTG-induced mechanical hypersensitivity, male mice","[1]; 30 mg/kg i.p., 60 min post-administration (only this dose and time)",significantly blocked
same,"NTG-induced mechanical hypersensitivity, female mice","[1]; 10 and 30 mg/kg i.p., significant at 30 min, lasting even after 120 min",fully blocked; also recorded: significantly reduces the hypersensitivity threshold induced by NTG
